Laboratory results as given in patent US11834440B2, “Beta-lactam derivatives for the treatment of diseases” (Insilico Medicine IP Limited, priority 2021, dated 2023).

The molecules below were run against QPCTL (Homo sapiens (Human), UniProt Q9NXS2) (assay: QPCTL inhibition, SensoLyte Green Glutaminyl Cyclase Activity Assay). Conditions: 0.8 nM 2x enzyme solution, 45 min at 37° C., 50 mM Tris pH 8.0, 1% DMSO.
Type: biochemical
Procedure: Preparation of working solution: 2×Glutaminyl Cyclase substrate was diluted in assay buffer to […]. 2×enzyme solution and QPCTL was diluted in assay buffer to 0.8 nM. Glutaminyl Cyclase Developer was diluted in assay buffer to 1×(containing 10 mM 1-Benzyl-Imidazole). Serial dilution of test compounds was performed in DMSO. The final DMSO concentration in 100 μl reaction was 1%. The assay buffer was 50 mM Tris, pH 8.0, 0.01% BSA.
Procedure: 50 μL of 2×Glutaminyl Cyclase substrate solution was added into the assay plate followed by 50 μL of 2×enzyme solution. The plate was centrifuged for 1 min at 1000 rmp. Next the plate was incubated for 45 minutes at 37° C. This was followed by the additional of 50 μL of the prepared Glutaminyl Cyclase developer and incubated for additional 30 min at 37° C. Results were read on SpectraMax Paradigm detecting with emission at Ex/Em=490 nm/520 nm.
A Z′ value was calculated for each assay plate. The Z′ value must be >0.5 or the plate was disqualified. […] Results were calculated using GraphPad Prism 7 software is used for IC50 determination.

Chain of QPCTL (Q9NXS2 whole entry, species assumed): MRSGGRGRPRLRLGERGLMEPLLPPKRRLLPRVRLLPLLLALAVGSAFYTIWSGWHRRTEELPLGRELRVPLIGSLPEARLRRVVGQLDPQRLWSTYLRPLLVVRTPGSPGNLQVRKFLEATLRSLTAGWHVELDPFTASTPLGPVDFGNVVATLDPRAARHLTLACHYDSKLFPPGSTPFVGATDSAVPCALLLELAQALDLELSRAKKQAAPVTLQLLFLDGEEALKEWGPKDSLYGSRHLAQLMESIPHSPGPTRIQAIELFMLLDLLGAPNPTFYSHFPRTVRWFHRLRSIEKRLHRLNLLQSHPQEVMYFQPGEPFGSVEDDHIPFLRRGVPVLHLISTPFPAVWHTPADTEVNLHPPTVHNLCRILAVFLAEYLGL

Q: `O=C1[C@@H](O)[C@H](c2c(F)cc(OCCC(F)F)cc2F)N1c1ccc2[nH]cnc2c1` (racemic) [Compound 8TR, (trans and racemic)-1-(1H-benzo[d]imidazol-5-yl)-4-(4-(3,3-difluoropropoxy)-2,6-difluorophenyl)-3-hydroxyazetidin-2-one] was tested. Which IC50 did it give?
A: Its IC50 is 25 to 1000 nM.

Q: Which IC50 does the source give for `O=C1[C@H](C2CC2)[C@H](c2c(F)cc(-n3ccc(C(F)(F)F)n3)cc2F)N1c1ccc2[nH]cnc2c1` (single isomer, unassigned) [Compound 48B] here?
A: Its IC50 is less than 2 nM.

Q: With `C[C@H]1C(=O)N(c2ccc3[nH]cnc3c2)[C@H]1c1c(F)cc(OCCC2CC2)cc1F` (racemic) [Compound 34CR, (Cis and racemic)-1-(1H-benzo[d]imidazol-5-yl)-4-(4-(2-cyclopropylethoxy)-2,6-difluorophenyl)-3-methylazetidin-2-one] as the molecule, how does the IC50 read?
A: The IC50 was less than 2 nM.

Q: Which IC50 does the source give for `Cc1nc(-c2cnn(C(F)(F)F)c2)ccc1[C@@H]1[C@H](C2CC2)C(=O)N1c1ccc2[nH]cnc2c1` (single isomer, unassigned) [Compound 68A] here?
A: Its IC50 is 25 to 1000 nM.

Q: How did the IC50 turn out when `O=C1[C@H](C2CC2)[C@H](c2ccc(OCCC(F)F)nc2)N1c1ccc2[nH]cnc2c1` (single isomer, unassigned) [Compound 45B] was run?
A: The IC50 was less than 2 nM.

Q: How did the IC50 turn out when `O=C1[C@H](C2CC2)[C@H](c2c(F)cc(-c3cnn(C(F)(F)F)c3)cc2F)N1c1ccc2[nH]cnc2c1` (single isomer, unassigned) [Compound 35B] was run?
A: The IC50 was less than 2 nM.

Q: `Cc1nc(-n2cnc(C(F)(F)F)c2)ccc1[C@@H]1[C@H](C2CC2)C(=O)N1c1ccc2[nH]cnc2c1` (single isomer, unassigned) [Compound 72A] was tested. Which IC50 did it give?
A: Its IC50 is greater than 1000 nM.

Q: For `Cn1cc(-c2cc(F)c(C3CC(=O)N3c3ccc4[nH]cnc4c3)c(F)c2)cn1` (racemic) [Compound 9, 1-(1H-benzo[d]imidazol-5-yl)-4-(2,6-difluoro-4-(1-methyl-1H-pyrazol-4-yl)phenyl)azetidin-2-one], which IC50 is on record?
A: The IC50 was 25 to 1000 nM.

Q: Which IC50 does the source give for `O=C1[C@@H](O)[C@H](c2c(F)cc(-c3cnn(C(F)(F)F)c3)cc2F)N1c1ccc2[nH]cnc2c1` (racemic) [Compound 16TR] here?
A: Its IC50 is 25 to 1000 nM.

Q: How did the IC50 turn out when `C[C@@H]1C(=O)N(c2ccc3[nH]cnc3c2)[C@H]1c1c(F)cc(-n2cc(C(F)(F)F)cn2)cc1F` (racemic) [Compound 28TR, (trans and racemic)-1-(1H-benzo[d]imidazol-5-yl)-4-(2,6-difluoro-4-(4-(trifluoromethyl)-1H-pyrazol-1-yl)phenyl)-3-methylazetidin-2-one] was run?
A: The IC50 was 2 to 25 nM.

Q: With `O=C1[C@H](C2CC2)[C@H](c2c(F)cc(-c3cn(C(F)(F)F)nn3)cc2F)N1c1ccc2[nH]cnc2c1` (single isomer, unassigned) [Compound 50B] as the molecule, how does the IC50 read?
A: Its IC50 is less than 2 nM.

Q: `C[C@@H]1C(=O)N(c2ccc3[nH]cnc3c2)[C@@H]1c1c(F)cc(-c2cnn(C)c2)cc1F` (single isomer, unassigned) [Compound 13A] was tested. Which IC50 did it give?
A: Its IC50 is greater than 1000 nM.
